Here are results for one substance from patent US20230392123A1, “[…]-ASSEMBLED PEPTIDE HYDROGELS […]” (KATHOLIEKE UNIVERSITEIT LEUVEN, priority 2020, published 2023).

The data set has as its system HepG2 cells. Briefly: Live/dead staining of HepG2 hydrogel spheroids in 384 well plate, high-content imaging. The data set is classed as cell-based. Particulars: 0.1% Triton X for 15 minutes, after 19 days of culture, toxic control. Here is the method: High-throughput assays: HepG2 cells were cultured in 2D in DMEM (Invitrogen Cat #31885)+10% fetal bovine serum (FBS). Cells were detached at passage 12 by 0.05% trypsin and mixed (1×10^7 cells/ml) with Puramatrix™+10% Bovine Collagen I (Gibco, Ref: A10644-01, Auckland, NZ) and 1 ul of the mix was pipetted in each well of a 384 well plate (Greiner microplate, Ref: 787979) to form the HepG2 hydrogel spheroids (one hydrogel spheroid per well). Hydrogel spheroids were maintained in HepG2 medium and the medium change was handled automatically by a robotic platform (NextGenQBio) for 19 days. Live/dead staining (Invitrogen, Ref:3224) was performed on the cell in the spheroids according the manufacturer's instruction. Prior to live/dead staining, a group of the hydrogel spheroids were treated with 0.1% Triton X for 15 minutes as control. Nuclei was stained by Hoechst (1:1000 dilution) for 15 minutes. The plate was imaged by a high-content analysis system (Operetta, PerkinElmer®). […] This experiment highlights the potential of hydrogel spheroids to be used in a high-throughput set up specifically important for drug/compound screening and toxicity studies.

“Also recorded” adds a separate entry of the source.

Take Triton X: the “live (green)/dead (red) staining of HepG2 cells in hydrogel spheroids” value is “minimal or no green colour; also recorded: cell death”.
